According to US20110082133A1, “PYRIDONE COMPOUNDS” (priority 2008, published 2011):
Where a name gives a salt, the structure may show the parent alone.

Biological target: T1, rat EP2 receptor (Rattus norvegicus, UniProt Q62928)
T1 construct: expressed in transfected cells
Test: Rat EP2 receptor agonistic/antagonistic action (cAMP assay, CHO-K1 stable expression cells)
Assay type: cell-based
Conditions: cAMP increasing action, 1 μM PGE2 taken as 100%, NE means that the action has no significance
Experimental: For a rat EP2 receptor, stable expression cells were used to carry out a cAMP assay. The agonistic activity was evaluated by the cAMP increasing action by the test compound, and the antagonistic activity was evaluated by the inhibiting action of the test compound on the cAMP increasing action by PGE2.
The rat EP2 receptor cDNA was subcloned into an expression vector (pcDNA3.1-V5-His-topo, manufactured by Invitrogen Corporation). This expression vector was introduced into CHO-K1 cells (American Type Culture Collection) to prepare a rat EP2 receptor stable expression cell line. These cells were seeded onto a 96-well microplate at 0.5×10^4 cell/well, and used for the experiment the next day. The culture medium of each well was removed by suction, 100 μL/well of an assay culture medium (α-MEM containing 2 μM indomethacin and 0.1% bovine serum albumin) was added thereto, and incubated at 37° C. for 1 hour. The culture medium was removed again by suction, and replaced with 100 μL/well of an assay culture medium containing a test compound and 1 mM IBMX. […] Using a cAMP femto 2 kit (manufactured by Cis Bio International), the cAMP concentration in the cell lysate was measured. In this connection, the cAMP increasing action (%) was calculated with the cAMP increasing action by 1 μM PGE2 was taken as 100%.

T1 sequence (Q62928 whole entry): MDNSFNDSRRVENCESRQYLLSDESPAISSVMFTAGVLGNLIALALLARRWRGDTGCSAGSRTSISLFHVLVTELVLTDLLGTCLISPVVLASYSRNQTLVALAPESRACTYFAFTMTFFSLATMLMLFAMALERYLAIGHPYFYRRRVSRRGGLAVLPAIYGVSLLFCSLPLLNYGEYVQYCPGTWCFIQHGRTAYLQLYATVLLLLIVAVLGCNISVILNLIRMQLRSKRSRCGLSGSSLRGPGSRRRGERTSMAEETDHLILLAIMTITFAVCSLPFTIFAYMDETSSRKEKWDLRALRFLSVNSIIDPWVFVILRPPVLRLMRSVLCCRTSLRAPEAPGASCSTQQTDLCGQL

| Rat EP2 Agonistic Action 10 μM | Structure (SMILES) |
| --- | --- |
| 14% | CCC[C@H]1CCCN1Cc1c(Cl)cc(Cl)c(=O)n1CCc1ccc(C(=O)O)cc1 [Example 17, 4-{2-[3,5-dichloro-2-oxo-6-{[(2S)-2-propylpyrrolidin-1-yl]methyl}pyridin-1(2H)-yl]ethyl}benzoic acid trifluoroacetate] |
| 19% | CN(Cc1c(Cl)cc(Cl)c(=O)n1CCc1ccc(C(=O)O)cc1)c1cccc(Cl)c1 [Example 160] |
